Reference: patent EP0183174A2, “Substituted phenoxy urea, processes for its preparation and herbicide containing it as active ingredient” (KUMIAI CHEMICAL INDUSTRY CO., LTD., priority 1984, dated 1986)

How the values were obtained:
rice = assay: Test Example 3: herbicidal test by upland soil treatment (phytotoxicity); type: in vivo; design: key: 5: Withered; 4.5: Herbicidal effect (or phytotoxicity) in a range of 90 to 99%; 4: Herbicidal effect (or phytotoxicity) in a range of 80 to 89%; 3.5: Herbicidal effect (or phytotoxicity) in a range of 70 to 79%; 3: Herbicidal effect (or phytotoxicity) in a range of 60 to 69%; 2.5: Herbicidal effect (or phytotoxicity) in a range of 50 to 59%; 2: Herbicidal effect (or phytotoxicity) in a range of 40 to 49%; 1.5: Herbicidal effect (or phytotoxicity) in a range of 30 to 39%; 1: Herbicidal effect (or phytotoxicity) in a range of 20 to 29%; 0.5: Herbicidal effect (or phytotoxicity) in a range of 1 to 19%; 0: No herbicidal effect (or no phytotoxicity); conditions: evaluated twenty days after application
From the text: (§1) Into each plastic pot of 600 cm^2, upland soil was filled, then seeds of barnyardgrass, crabgrass, green foxtail, redroot pigweed, rice flatsedge, rice, wheat, maize, soybean, cotton and sugar beet were sown, and they were covered with soil. A predetermined amount of the wettable powder prepared from the test compound in accordance with Formulation Example 3 and diluted with water, was uniformly applied to the surface of the soil at an application rate of 1000 liter/hectare by means of a small size spray. They were grown in a greenhouse, and twenty days after the application, the herbicidal effects and phytotoxicity were evaluated in accordance with the standards as identified in Table 5.

cotton = assay: as above; type: in vivo; design: key: 5: Withered; 4.5: Herbicidal effect (or phytotoxicity) in a range of 90 to 99%; 4: Herbicidal effect (or phytotoxicity) in a range of 80 to 89%; 3.5: Herbicidal effect (or phytotoxicity) in a range of 70 to 79%; 3: Herbicidal effect (or phytotoxicity) in a range of 60 to 69%; 2.5: Herbicidal effect (or phytotoxicity) in a range of 50 to 59%; 2: Herbicidal effect (or phytotoxicity) in a range of 40 to 49%; 1.5: Herbicidal effect (or phytotoxicity) in a range of 30 to 39%; 1: Herbicidal effect (or phytotoxicity) in a range of 20 to 29%; 0.5: Herbicidal effect (or phytotoxicity) in a range of 1 to 19%; 0: No herbicidal effect (or no phytotoxicity); conditions: evaluated twenty days after application
From the text: as §1

CN(C)C(=O)NOc1cc(Cl)ccc1Cl [Compound No. 1, 3-(2,5-Dichlorophenoxy)-1,1-dimethyl urea]
0: Phytotoxicity Rice (rice; Dose 1 kg/HA) | Phytotoxicity Rice (rice; Dose 4 kg/HA) | Phytotoxicity Cotton (cotton; Dose 1 kg/HA) | Phytotoxicity Cotton (cotton; Dose 4 kg/HA)
